Reference: patent US7754919B2, “Non-nucleoside reverse transcriptase inhibitors” (Roche Palo Alto LLC, priority 2005, dated 2010)

melting point [°C]	Structure (SMILES)
148 to 152.4	N#Cc1cc(Cl)cc(Oc2c(Br)ccc(CC(=O)Nc3ccc(C(=O)NC4(CN)CC4)cc3Cl)c2F)c1.O=C(O)C(F)(F)F
270 to 270.8	Cc1cc(C(=O)O)ccc1NC(=O)Cc1ccc(Br)c(Oc2cc(Cl)cc(C#N)c2)c1F
160 to 165.7	N#Cc1cc(Oc2c(Br)ccc(CC(=O)Nc3ccc(C(=O)NCCN4CCCC4)cc3Cl)c2F)cc(C(F)F)c1
96	CN1CCC(C)(NC(=O)c2ccc(NC(=O)Cc3ccc(Br)c(Oc4cc(Cl)cc(C#N)c4)c3F)c(Cl)c2)CC1
179 to 181	CC1CC[C@@H](C)N1CCNC(=O)c1ccc(NC(=O)Cc2ccc(Br)c(Oc3cc(Cl)cc(C#N)c3)c2F)c(Cl)c1 (stereo partly shown)
95 to 105	CC1(NC(=O)c2ccc(NC(=O)Cc3ccc(Br)c(Oc4cc(Cl)cc(C#N)c4)c3F)c(Cl)c2)CCS(=O)(=O)C1 (stereo not shown)
100.1	N#Cc1cc(Cl)cc(Oc2c(Br)ccc(CC(=O)Nc3ccc(C(=O)NCCN(CCO)CCO)cc3Cl)c2F)c1
235.5	CS(=O)(=O)CCNC(=O)c1ccc(NC(=O)Cc2ccc(Br)c(Oc3cc(Cl)cc(C#N)c3)c2F)c(Cl)c1
219.8 to 222	Cc1cc(C(=O)NCCN2CCOCC2)ccc1NC(=O)Cc1ccc(Br)c(Oc2cc(Cl)cc(C#N)c2)c1F
130.5	CC1(NC(=O)c2ccc(NC(=O)Cc3ccc(Br)c(Oc4cc(Cl)cc(C#N)c4)c3F)c(Cl)c2)CCNCC1.O=C(O)C(F)(F)F
242 to 243	N#Cc1cc(Cl)cc(Oc2c(Cl)ccc(CC(=O)Nc3ccc(C(=O)O)cc3Cl)c2F)c1
69.1	CC(CO)(CO)NC(=O)c1ccc(NC(=O)Cc2ccc(Br)c(Oc3cc(Cl)cc(C#N)c3)c2F)c(Cl)c1
207 to 209	N#Cc1cc(Cl)cc(Oc2c(Br)ccc(CC(=O)Nc3ccc(C(=O)NC(=N)N)cc3Cl)c2F)c1
202.8 to 203.6	CN(C)CCNC(=O)c1ccc(NC(=O)Cc2ccc(Cl)c(Oc3cc(Cl)cc(C#N)c3)c2F)c(Cl)c1
117.8 to 120	Cc1cc(C(=O)NC2CCNC2)ccc1NC(=O)Cc1ccc(Br)c(Oc2cc(Cl)cc(C#N)c2)c1F (stereo not shown)
158 to 160.8	CC(C)(CN)NC(=O)c1ccc(NC(=O)Cc2ccc(Br)c(Oc3cc(Cl)cc(C#N)c3)c2F)c(Cl)c1.Cl
225.5 to 228.8	Cc1cc(C(=O)NC[C@@H](C)O)ccc1NC(=O)Cc1ccc(Br)c(Oc2cc(C#N)cc(C(F)F)c2)c1F
168.1 to 170.1	Cc1cc(C(=O)NCCN2CCS(=O)(=O)CC2)ccc1NC(=O)Cc1ccc(Br)c(Oc2cc(Cl)cc(C#N)c2)c1F
255.9 to 257.1	Cc1cc(C(N)=O)ccc1NC(=O)Cc1ccc(Cl)c(Oc2cc(Cl)cc(C#N)c2)c1F
202.4 to 203.7	Cc1cc(C(=O)NCCN2CCCC2)ccc1NC(=O)Cc1ccc(Br)c(Oc2cc(C#N)cc(C(F)F)c2)c1F
212	CCN1CCCC1CNC(=O)c1ccc(NC(=O)Cc2ccc(Br)c(Oc3cc(Cl)cc(C#N)c3)c2F)c(Cl)c1 (stereo not shown)
287.1 to 289.1	Cc1cc(C(=O)O)ccc1NC(=O)Cc1ccc(Cl)c(Oc2cc(Cl)cc(C#N)c2)c1F
214.7 to 216.9	Cc1cc(C(=O)NCCN2CCCC2)ccc1NC(=O)Cc1ccc(Br)c(Oc2cc(Cl)cc(C#N)c2)c1F
197.7 to 198.3	N#Cc1cc(Cl)cc(Oc2c(Br)ccc(CC(=O)Nc3ccc(C(=O)NCCN4CCCC4)cc3Cl)c2F)c1
267.9 to 268.1	Cc1cc(C(=O)O)ccc1NC(=O)Cc1ccc(Br)c(Oc2cc(C#N)cc(C(F)F)c2)c1F
222 to 223.2	Cc1cc(C(=O)NC(C)CN(C)C)ccc1NC(=O)Cc1ccc(Br)c(Oc2cc(Cl)cc(C#N)c2)c1F (stereo not shown)
207.6 to 208.6	Cc1cc(C(=O)NCCN)ccc1NC(=O)Cc1ccc(Cl)c(Oc2cc(Cl)cc(C#N)c2)c1F

Structure (SMILES)	melting point [°C]
Cc1cc(C(=O)NCCN(C)C)ccc1NC(=O)Cc1ccc(Cl)c(Oc2cc(Cl)cc(C#N)c2)c1F	213.3 to 216
